{"source": "ChEMBL document CHEMBL4354827", "about": "“Discovery of Novel, Potent, Brain-Permeable, and Orally Efficacious Positive Allosteric Modulator of α7 Nicotinic Acetylcholine Receptor [4-(5-(4-Chlorophenyl)-4-methyl-2-propionylthiophen-3-yl)benzenesulfonamide]: Structure-Activity Relationship and Preclinical Characterization” (J Med Chem, 2020)", "key": {"[1]": {"assay": "Protein binding in mouse plasma assessed as unbound fraction at 5 uM incubated for 16 hrs under shaking condition by LC/MS/MS based rapid equilibrium dialysis method", "assay_type": "ADME, cell-free"}, "[2]": {"assay": "Cmax in Wistar rat at 10 mg/kg, po after 0.25 to 144 hrs by LC-MS/MS analysis", "assay_type": "ADME, organism-based", "parameters": "dose 10 mg/kg, route oral", "details": "in vivo"}, "[3]": {"assay": "Cmax in BALB/c mouse at 1 mg/kg, iv after 0.083 to 144 hrs by LC-MS/MS analysis", "assay_type": "ADME, organism-based", "parameters": "dose 1 mg/kg, route intravenous", "details": "in vivo"}, "[4]": {"assay": "Half life in Beagle dog at 10 mg/kg, po after 0.25 to 144 hrs by LC-MS/MS analysis", "assay_type": "ADME, organism-based, Canis lupus familiaris", "details": "in vivo"}, "[5]": {"assay": "Drug concentration in Wistar rat brain at 10 mg/kg, po after 1 hr by LC-MS/MS analysis", "assay_type": "ADME, organism-based", "details": "read-out: Drug uptake"}, "[6]": {"assay": "Brain to plasma permeability coefficient, Kp in Wistar rat at 10 mg/kg, po after 4 hrs by LC-MS/MS analysis", "assay_type": "ADME, organism-based"}, "[7]": {"assay": "Unbound brain-to-plasma concentration ratio in Wistar rat at 10 mg/kg, po after 8 hrs by LC-MS/MS analysis", "assay_type": "ADME, organism-based", "details": "read-out: K(p,uu,brain)"}, "[8]": {"assay": "Unbound brain-to-plasma concentration ratio in Wistar rat at 10 mg/kg, po after 24 hrs by LC-MS/MS analysis", "assay_type": "ADME, organism-based", "details": "read-out: K(p,uu,brain)"}, "[9]": {"assay": "Unbound brain-to-plasma concentration ratio in Wistar rat at 10 mg/kg, po after 48 hrs by LC-MS/MS analysis", "assay_type": "ADME, organism-based", "details": "read-out: K(p,uu,brain)"}, "[10]": {"assay": "Tmax in Wistar rat plasma at 10 mg/kg, po after 1 to 144 hrs by LC-MS/MS analysis", "assay_type": "ADME, organism-based"}, "Rattus norvegicus [11]": {"tested_on": "Rattus norvegicus", "assay": "Memory enhancement effect in time-delay induced Wistar rat model of amnesia assessed as exploration time for object2 in acquisition trial at 1 mg/kg, po administered as single dose and measured on day 8 by novel object recognition test (reference value: 16.33 sec)", "assay_type": "functional"}, "Rattus norvegicus [12]": {"tested_on": "Rattus norvegicus", "assay": "Memory enhancement effect in time-delay induced Wistar rat model of amnesia assessed as exploration time for familiar object in retention trial at 1 mg/kg, po administered as single dose and measured on day 9 by novel object recognition test (reference value: 13.05 sec)", "assay_type": "functional"}, "Rattus norvegicus [13]": {"tested_on": "Rattus norvegicus", "assay": "Memory enhancement effect in scopolamine-induced Wistar rat model of amnesia assessed as exploration time for familiar object in retention trial at 0.15 mg/kg, po administered as single dose and measured on day 9 by novel object recognition test (reference value: 8.59 sec)", "assay_type": "functional"}, "Rattus norvegicus [14]": {"tested_on": "Rattus norvegicus", "assay": "Memory enhancement effect in scopolamine-induced Wistar rat model of amnesia assessed as exploration time for familiar object in retention trial at 0.05 mg/kg, po administered as single dose and measured on day 9 by novel object recognition test (reference value: 8.59 sec)", "assay_type": "functional"}, "Rattus norvegicus [15]": {"tested_on": "Rattus norvegicus", "assay": "Memory enhancement effect in scopolamine-induced Wistar rat model of amnesia assessed as exploration time for familiar object in retention trial at 0.5 mg/kg, po administered as single dose and measured on day 9 by novel object recognition test (reference value: 8.59 sec)", "assay_type": "functional"}, "Rattus norvegicus [16]": {"tested_on": "Rattus norvegicus", "assay": "Memory enhancement effect in time-delay induced Wistar rat model of amnesia assessed as exploration time for object2 at 1 mg/kg, po administered as single dose after acquisition trial by novel object recognition test (reference value: 21.07 sec)", "assay_type": "functional"}, "Rattus norvegicus [17]": {"tested_on": "Rattus norvegicus", "assay": "Memory enhancement effect in time-delay induced Wistar rat model of amnesia assessed as exploration time for object1 in acquisition trial at 0.05 mg/kg, po for 7 days and measured on day 8 by novel object recognition test (reference value: 13.73 sec)", "assay_type": "functional"}, "Rattus norvegicus [18]": {"tested_on": "Rattus norvegicus", "assay": "Memory enhancement effect in time-delay induced Wistar rat model of amnesia assessed as exploration time for object2 in acquisition trial at 0.05 mg/kg, po for 7 days and measured on day 8 by novel object recognition test (reference value: 11.76 sec)", "assay_type": "functional"}, "Rattus norvegicus [19]": {"tested_on": "Rattus norvegicus", "assay": "Memory enhancement effect in time-delay induced Wistar rat model of amnesia assessed as exploration time for object1 in acquisition trial at 0.15 mg/kg, po for 7 days and measured on day 8 by novel object recognition test (reference value: 13.73 sec)", "assay_type": "functional"}, "Rattus norvegicus [20]": {"tested_on": "Rattus norvegicus", "assay": "Memory enhancement effect in time-delay induced Wistar rat model of amnesia assessed as exploration time for familiar object in retention trial at 0.15 mg/kg, po for 7 days and measured on day 8 by novel object recognition test (reference value: 10.20 sec)", "assay_type": "functional"}, "Rattus norvegicus [21]": {"tested_on": "Rattus norvegicus", "assay": "Memory enhancement effect in time-delay induced Wistar rat model of amnesia assessed as exploration time for novel object in retention trial at 0.5 mg/kg, po for 7 days and measured on day 8 by novel object recognition test (reference value: 15.37 sec)", "assay_type": "functional"}, "[22]": {"assay": "Drug level in Wistar rat plasma at 0.5 mg/kg, po", "assay_type": "ADME, organism-based", "details": "in vivo"}, "Rattus norvegicus [23]": {"tested_on": "Rattus norvegicus", "assay": "Memory enhancement effect in scopolamine-induced Wistar rat model of amnesia assessed as exploration time for object1 in acquisition trial at 0.05 mg/kg, po for 7 days and measured on day 8 by novel object recognition test (reference value: 16.11 sec)", "assay_type": "functional"}, "Rattus norvegicus [24]": {"tested_on": "Rattus norvegicus", "assay": "Memory enhancement effect in scopolamine-induced Wistar rat model of amnesia assessed as exploration time for object2 in acquisition trial at 0.05 mg/kg, po for 7 days and measured on day 8 by novel object recognition test (reference value: 15.63 sec)", "assay_type": "functional"}, "Rattus norvegicus [25]": {"tested_on": "Rattus norvegicus", "assay": "Memory enhancement effect in scopolamine-induced Wistar rat model of amnesia assessed as exploration time for object1 in acquisition trial at 0.15 mg/kg, po for 7 days and measured on day 8 by novel object recognition test (reference value: 16.11 sec)", "assay_type": "functional"}, "Rattus norvegicus [26]": {"tested_on": "Rattus norvegicus", "assay": "Memory enhancement effect in scopolamine-induced Wistar rat model of amnesia assessed as exploration time for object2 in acquisition trial at 0.50 mg/kg, po for 7 days and measured on day 8 by novel object recognition test (reference value: 15.63 sec)", "assay_type": "functional"}, "Rattus norvegicus [27]": {"tested_on": "Rattus norvegicus", "assay": "Improvement in social recognition scopolamine-induced Sprague-Dawley rat model of amnesia assessed as reduction in recognition index at 1 mg/kg, po administered as single dose prior to 1 hr training and measured after 30 mins (reference value: 0.9)", "assay_type": "functional"}, "Rattus norvegicus [28]": {"tested_on": "Rattus norvegicus", "assay": "Improvement in social recognition scopolamine-induced Sprague-Dawley rat model of amnesia assessed as reduction in recognition index at 0.15 mg/kg, po for 7 days measured after 24 hrs (reference value: 0.93)", "assay_type": "functional"}, "[29]": {"assay": "Half life in human at 7.5 to 50 mg administered for 14 days", "assay_type": "ADME", "details": "in vivo"}}, "data": [{"smiles": "CCC(=O)c1sc(-c2ccc(Cl)cc2)c(C)c1-c1ccc(S(N)(=O)=O)cc1", "values": [{"measurement": "fraction unbound at 16 h, 5 µM", "setting": "[1]", "value": 0.0116}, {"measurement": "Cmax", "setting": "[2]", "value": 4100, "unit": "nM"}, {"measurement": "Cmax", "setting": "[3]", "value": 900, "unit": "nM"}, {"measurement": "half-life", "setting": "[4]", "value": 54, "unit": "h"}, {"measurement": "concentration at 1 h", "setting": "[5]", "value": 4030, "unit": "nM"}, {"measurement": "Kp at 4 h", "setting": "[6]", "value": 10.7}, {"measurement": "Kp uu at 8 h", "setting": "[7]", "value": 0.93}, {"measurement": "Kp uu at 24 h", "setting": "[8]", "value": 1.07}, {"measurement": "Kp uu at 48 h", "setting": "[9]", "value": 1.15}, {"measurement": "Tmax", "setting": "[10]", "value": 1, "unit": "h"}, {"measurement": "Time", "setting": "Rattus norvegicus [11]", "value": 23.96, "unit": "s"}, {"measurement": "Time", "setting": "Rattus norvegicus [12]", "value": 10.49, "unit": "s"}, {"measurement": "Time", "setting": "Rattus norvegicus [13]", "value": 4.86, "unit": "s"}, {"measurement": "Time", "setting": "Rattus norvegicus [14]", "value": 8.03, "unit": "s"}, {"measurement": "Time", "setting": "Rattus norvegicus [15]", "value": 6.63, "unit": "s"}, {"measurement": "Time", "setting": "Rattus norvegicus [16]", "value": 25.36, "unit": "s"}, {"measurement": "Time", "setting": "Rattus norvegicus [17]", "value": 15.2, "unit": "s"}, {"measurement": "Time", "setting": "Rattus norvegicus [18]", "value": 15.41, "unit": "s"}, {"measurement": "Time", "setting": "Rattus norvegicus [19]", "value": 10.95, "unit": "s"}, {"measurement": "Time", "setting": "Rattus norvegicus [20]", "value": 3.79, "unit": "s"}, {"measurement": "Time", "setting": "Rattus norvegicus [21]", "value": 19.64, "unit": "s"}, {"measurement": "concentration", "setting": "[22]", "value": 270, "unit": "nM"}, {"measurement": "Time", "setting": "Rattus norvegicus [23]", "value": 16.07, "unit": "s"}, {"measurement": "Time", "setting": "Rattus norvegicus [24]", "value": 18.31, "unit": "s"}, {"measurement": "Time", "setting": "Rattus norvegicus [25]", "value": 14.08, "unit": "s"}, {"measurement": "Time", "setting": "Rattus norvegicus [26]", "value": 16.55, "unit": "s"}, {"measurement": "Activity_index", "setting": "Rattus norvegicus [27]", "value": 0.52}, {"measurement": "Activity_index", "setting": "Rattus norvegicus [28]", "value": 0.44}, {"measurement": "half-life", "setting": "[29]", "value": "48 to 80.9", "unit": "h"}]}]}
